Test results reported in patent publication US20180264134A1, “A COMPOSITION OF GOLD NANOPARTICLES HAVING ANTIMICROBIAL PEPTIDES BOUND ON THEIR SURFACE FOR USE THE TREATMENT OF WOUND HEALING OR IN THE TREATMENT OF ISCHEMIC OR VASCULAR DISEASES OR IN THE TREATMENT OF SKIN DISORDERS” (priority 2015, published 2018).
In brackets after ≈: the same amount, converted by molar mass. Entries after “also recorded” stand apart in the source; their conditions may differ.

Key:
[1] = system: Escherichia coli (ATCC 25922); format: cell-based; conditions: 10^5 CFU of E. coli
Description: The antimicrobial activity testing may be: Escherichia coli (ATCC 25922) was grown at 37° C. and maintained on LB plates (Luria-Bertani broth with 1.5% agar). […] Aliquots (100 μL) were taken out from the respective suspensions at 2 h intervals and diluted in PBS buffer to give 10^3 bacteria per mL and plated on LB agar plates followed by incubation at 37° C. Colonies were counted after 24 h of incubation. The collected supernatant was tested for antimicrobial activity as described above.

HaCaT cells = experiment: Scratch assay in HaCaT; format: cell-based, human
Description: Scratch Assay in HaCaT. HaCaT cells (passage 35-40) were seeded at a density of 2×10^4 cells/well in fibronectin-coated 96-well plate in DMEM supplemented with 1% (v/v) penicillin and streptomycin and 10% (v/v) FBS. After 48 h, cells were firstly starved for 15 h in DMEM with 0.5% FBS and then incubated with LL-37 (1 μg/mL), LL-37 AUNPs and AUNPs (200 μg/mL) for 5 h at 37° C. and 5% CO2. All the chemical inhibitors for FPRL1, EGFR, ADAM17 and Purinergic receptor were added into cells 1 hour before and for all the incubation time with LL37, LL37-Au NPs or AuNPs. After treatments, cells were washed twice with PBS to remove non-internalized NPs and a scratch was created with a sterile pipet tip. The detached cells were washed twice with PBS and then plates were re-coated with fibronectin (10 μg/mL in starvation medium) for 1 hour at 37° C. At this point (t=0), the first images were taken on In Cell Microscope 2000 (GE Healthcare) (objective 2×). Then cells were washed and maintained in starvation medium up to 72 h. During this time, cell migration was monitored and more images were taken up to 72 h. Scratch areas were quantified using the AxioVision software (Carl Zeiss). Wound areas were normalized by the initial area (n=8 images). On the other hand, to test the prolonged effect of LL37-Au NPs on HaCaT migration, cells were plated in fibronectin-coated 24-well plate (2×10^5 cells/well), after 48 h cells were starved for 15 h in DMEM with 0.5% FBS and then the scratch was made with a sterile pipet tip. Only after the cells were incubated with LL-37 (1 μg/mL), LL37-Au NPs and AuNPs (15 μg/mL) in starvation medium up to 96 h. During this time, cell migration was monitored and images were taken and scratch area quantified.
In an embodiment, the NP bioactivity was carried out by scratch assay. Keratinocytes (passage 35-40) were seeded at a density of 2×10^4 cells/well in fibronectin-coated 96-well plate in DMEM supplemented with 1% (v/v) penicillin and streptomycin and 10% (v/v) FBS. After 48 h, cells were initially starved for 15 h in DMEM with 0.5% FBS, inactivated with mitomycin (5 μg/mL) for 2 h, and then incubated with LL37 (1 μg/mL), LL37-Au NPs or Au NPs (both at 200 μg/mL) for 5 h at 37° C. and 5% CO2. In case of chemical inhibition, the chemical inhibitors for FPRL1 (WRW4, Calbiochem, 10 μM), EGFR (Erlotinib HCL, OSI-744, Selleck Chemicals, 2 nM), ADAM17 (Marimastat, Sigma, 10 μM), P2X (PPADS, Sigma, 100 μM), for P2X7 (A-740003, Sigma, at a concentration of 500 nM), were added to the cells 1 h before the incubation with LL37 peptide and LL37-Au NPs and then maintained during the assay. […] After the 5 h treatment, cells were washed twice with PBS to remove non-internalized NPs and a scratch was created with a sterile pipette tip. The detached cells were washed twice with PBS and then plates were re-coated with fibronectin (10 μg/mL in starvation medium) for 1 h at 37° C. Cells were washed and maintained in starvation medium up to 72 h. Cell migration was monitored overtime by a in Cell Microscope 2000 (GE Healthcare) (objective 2×). The cells treated with LL37 peptide were cultured with starvation medium containing LL37 for the entire duration of the experiment. Scratch areas were quantified using the AxioVision software (Carl Zeiss). Wound areas were normalized by the initial area (n=6 images). In case of siRNA knock-down studies, on-target plus human ADAM17 siRNA or P2X7R siRNA (both from Dharmacon) were used to silence ADAM17 or P2X7 before performing the scratch assay. Keratinocytes were transfected with 50 nM siRNA using 0.25 μL of Lipofectamine RNAiMAX (Life Technologies) for 24 h in antibiotic-free complete medium before starting the scratch assay. […]

In the case of CC[C@H](C)[C@H](NC(=O)[C@H](CCCCN)NC(=O)[C@H](CCC(=O)O)NC(=O)[C@H](CCCCN)NC(=O)[C@H](CO)NC(=O)[C@H](CCCCN)NC(=O)[C@H](CCCNC(=N)N)NC(=O)[C@H](Cc1ccccc1)NC(=O)[C@H](Cc1ccccc1)NC(=O)[C@H](CC(=O)O)NC(=O)CNC(=O)[C@H](CC(C)C)NC(=O)[C@@H](N)CC(C)C)C(=O)NCC(=O)N[C@@H](CCCCN)C(=O)N[C@@H](CCC(=O)O)C(=O)N[C@@H](Cc1ccccc1)C(=O)N[C@@H](CCCCN)C(=O)N[C@@H](CCCNC(=N)N)C(=O)N[C@H](C(=O)N[C@H](C(=O)N[C@@H](CCC(N)=O)C(=O)N[C@@H](CCCNC(=N)N)C(=O)N[C@H](C(=O)N[C@@H](CCCCN)C(=O)N[C@@H](CC(=O)O)C(=O)N[C@@H](Cc1ccccc1)C(=O)N[C@@H](CC(C)C)C(=O)N[C@@H](CCCNC(=N)N)C(=O)N[C@@H](CC(N)=O)C(=O)N[C@@H](CC(C)C)C(=O)N[C@H](C(=O)N1CCC[C@H]1C(=O)N[C@@H](CCCNC(=N)N)C(=O)N[C@H](C(=O)N[C@@H](CCC(=O)O)C(=O)N[C@@H](CO)C(=O)N[C@@H](CS)C(N)=O)[C@@H](C)O)C(C)C)[C@@H](C)CC)C(C)C)[C@@H](C)CC [LL37], the “minimal inhibition concentration (MIC)” value [1] is reported as 5 µg/mL (≈ 1.09 µM), the “effect of P2X7 antagonist A-740003 on migration” value (HaCaT cells; A-740003 500 nM) is reported as “inhibited; also recorded: significant decrease” and the “effect of EGFR inhibitor Erlotinib on migration” value (HaCaT cells; Erlotinib 2 nM) is reported as “decreased significantly”. For the same compound, the migration of keratinocytes (HaCaT cells; LL37 1 μg/mL, NPs 200 μg/mL, listed as LL37 peptide) was “induced the migration; also recorded: induce the migratory properties”, the “effect of ADAM inhibitor Marimastat on migration” value (HaCaT cells; Marimastat 10 μM) was “significantly decreased; also recorded: significant decrease” and the “effect of purinergic antagonist PPADS on migration” value (HaCaT cells; PPADS 100 μM) was “inhibited; also recorded: significant decrease”. For the same compound, the “effect of FPRL-1 antagonist WRW4 on migration” value (HaCaT cells; WRW4 10 μM) was “no measurable effect”, the “effect of ADAM17 siRNA knockdown on migration” value (HaCaT cells; siRNA ADAM17) was “decreased the migratory properties; also recorded: reduced migratory effect” and the “effect of P2X7 siRNA knockdown on migration” value (HaCaT cells; siRNA P2X7) was “inhibited; also recorded: reduced migratory effect”.
